The source of these data is patent publication US9375435B2, “Use of a DNA expression construct” (MOLOGEN AG, priority 2010, dated 2016).

Test [1] has as its system A375 melanoma xenotransplanted-tumours. As to the kind of experiment: Chemo-sensitization of xenotransplanted tumours, intratumoral jet injection. It counts as in vivo. The note with it: twice 150 μg DNA construct, twice 0.5 mg/kg vindesine where indicated. As to the method: A) In vitro chemo-sensitization assay results. B) Chemo-sensitization of A375 melanoma xenotransplanted tumors.
The intratumoral jet injection was performed using twice 150 μg of the dumbbell-shaped DNA construct and where indicated additionally twice 0.5 mg/kg tumour vindesine.
On the y-axis is the median of the relative tumour volume shown for the indicated days after transfer (x-axis).

The next test has as its system A375 melanoma cells. The note with it: vindesine 12.8 μg per ml.

Description for A375 melanoma cells: In further experiments the effect of TNF-α expression on cell vitality and tumour volume was investigated.

With `CC[C@]1(O)C[C@@H]2CN(CCc3c([nH]c4ccccc34)[C@@](C(=O)OC)(c3cc4c(cc3OC)N(C)[C@H]3[C@@](O)(C(N)=O)[C@H](O)[C@]5(CC)C=CCN6CC[C@]43[C@@H]65)C2)C1` [vindesine], in test [1], the “median of the relative tumour volume” value is on record as “reduces the average tumour volume”. This molecule also displayed a relative cell vitality with A375 melanoma cells of 0.6.
